# Measured values as given in patent publication US7094794B2, “Substituted thiazole-benzoisothiazole dioxide derivatives, process for their preparation and their use” (Sanofi-Aventis Deutschland GmbH, priority 2003, dated 2006).
# Biological target: T1, recombinant hPTP1B (human PTP1B, 1-299 aa) (Homo sapiens, UniProt P18031)
# T1 construct: without the carboxy-terminal hydrophobic region (corresponding to 1-299 aa); made in house; host or cells: Sf9 insect cells (baculovirus, Bac-to-Bac, pFASTBAC)
# T1 sequence (P18031 1-299): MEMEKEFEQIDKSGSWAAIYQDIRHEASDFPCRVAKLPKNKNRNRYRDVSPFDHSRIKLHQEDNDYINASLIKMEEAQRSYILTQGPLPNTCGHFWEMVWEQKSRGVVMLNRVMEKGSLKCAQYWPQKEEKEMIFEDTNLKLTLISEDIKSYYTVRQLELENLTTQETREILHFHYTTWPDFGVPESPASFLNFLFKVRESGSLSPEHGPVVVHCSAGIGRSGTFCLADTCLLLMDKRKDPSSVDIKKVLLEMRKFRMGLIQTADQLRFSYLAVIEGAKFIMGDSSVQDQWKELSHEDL
# Assay: Enzymatic test systems for detecting inhibition of a phosphatase (in vitro assay)
# Assay type: biochemical
# Details: Table 2 does not say which substrate (phosphopeptide or p-nitrophenyl phosphate)
# Method: Enzymatic Test Systems for Detecting Inhibition of a Phosphatase
# The compounds of the formula I were tested for their phosphatase-inhibiting effect in an in vitro assay. The enzyme preparation and the performance of the assay was carried out as follows.
# • Sf9 cells (=Spodoptera frugiperda cell type; obtainable from invitrogen) are cultured in Grace's supplemented medium (Gibco-BRL) with 10% heat-inactivated fetal calf serum (Gibco-BRL) in spinner flasks at 28° C. in accordance with the protocol of Summers and Smith (A Manual for Methods for Baculoviruns Vectors and Insect Culture Procedures [Bulletin No. 15555]. Texas A & M University, Texas Agricultural Experiment Station, College Station, Tex., 1987). • Construction of recombinant Baculovirus transfer vectors: cDNA coding for the regulatory and catalytic domains of human PTP1B, but without the carboxy-terminal hydrophobic region (corresponding to 1-299 aa) was obtained by polymerase chain reaction via primers with attached cloning sites and suitable cDNA templates (obtainable for example from invitrogen) and then cloned into baculovirus expression vectors (Amersham Pharmacia Biotech.). The recombinant baculoviruses were prepared with the aid of the Bac-to-Bac baculovirus expression system (obtainable from Gibco-BRL). The gene was cloned into the pFASTBAC donor plasmid (obtainable from Life Technologies). The resulting plasmid was transformed into competent DH10BAC Escherichia coli cells (obtainable from Life Technologies). After transposition and antibiotic selection, the recombinant plasmid DNA was isolated from selected E. coli colonies and then used for the transfection of Sf9 insect cells. The virus particle in the supernatant medium was amplified three times up to a viral stock volume of 500 ml. B) Production of Recombinant Protein: • Baculovirus infection of a 500 ml spinner culture of Sf9 cells was essentially carried out as described by Summers and Smith (see above). Sf9 cells at a density of 1–3×10^6 cells/ml were pelleted by centrifugation at 300 g for 5 min, the supernatant was removed, and the cells were resuspended in a density of 1×10^7 cells/ml in a suitable recombinant viral stock (MOI 10). After careful shaking at room temperature for 1.5 h, fresh medium was added in order to achieve a cell density of 1×10^6 cells/ml. The cells were then cultured in the suspension at 28° C. for suitable periods after postinfection. C) Cellular Fractionation and Complete Cell Extracts of Infected Sf9 Cells: • After the postinfection, aliquots were subjected to an analysis of protein expression by SDS-PAGE and Western blot analysis. The cellular fractionation was carried out as described (Cromlish, W. and Kennedy, B. Biochem. Pharmacol. 52: 1777–1785, 1996). Complete cell extracts were obtained from 1 ml aliquots of the infected Sf9 cells after certain times postinfection. The pelleted cells (300×g, 5 min) were washed once in phosphate-buffered saline (4° C.), resuspended in 50 μl of water and disrupted by repeated freezing/thawing. Protein concentrations were determined with the aid of the Bradford method and bovine serum albumin as standard. Assay Procedure: A) Dephosphorylation of a Phosphopeptide: • This assay is based on the release of phosphate from a consensus substrate peptide which is detected in the nanomolar concentration range by the malachite green/ammonium molybdate method (Lanzetta, P. A., Alvarez, L. J., Reinach, P. S., Candia, O. A. Anal Biochem. 100: 95–97, 1979) adapted for the microtiter plate format. The dodecatrisphosphopeptide TRDIYETDYYRK (Biotrend, Cologne) corresponds to amino acids 1142–1153 of the catalytic domain of the insulin receptor and is (auto)phosphorylated on tyrosine residues 1146, 1150 and 1151. […]
row,SMILES,IC50 [µM]
1,O=S1(=O)Cc2cc(Nc3nc(-c4ccncc4)cs3)ccc2N1 [Example 13],> 80
2,COc1ccc(-c2csc(Nc3ccc4c(c3)CS(=O)(=O)N4)n2)c(OC)c1 [Example 6],48
3,O=S1(=O)Cc2cc(Nc3nc(-c4ccc5ccccc5c4)cs3)ccc2N1 [Example 3],8.8
4,O=S1(=O)Cc2cc(Nc3nc(-c4ccc(Cl)c(Cl)c4)cs3)ccc2N1 [Example 2],27.8
5,O=S1(=O)Cc2cc(Nc3nc(-c4cccc(Br)c4)cs3)ccc2N1 [Example 7],7.9
6,COc1cccc(-c2csc(Nc3ccc4c(c3)CS(=O)(=O)N4)n2)c1 [Example 9],6.3
7,Cc1sc(Nc2ccc3c(c2)CS(=O)(=O)N3)nc1-c1ccccc1 [Example 5],15.9

# The remaining lines, values ahead:
row,IC50 [µM],SMILES
1,5.3,Cc1c(-c2csc(Nc3ccc4c(c3)CS(=O)(=O)N4)n2)sc2ccc(Cl)cc12 [Example 10]
2,6.2,O=S1(=O)Cc2cc(Nc3nc(-c4ccc(Br)cc4)cs3)ccc2N1 [Example 4]
3,5.9,O=S1(=O)Cc2cc(Nc3nc(-c4ccc(N5CCCC5)cc4)cs3)ccc2N1 [Example 8]
4,2.77,CC(C)(C)c1cc(-c2csc(Nc3ccc4c(c3)CS(=O)(=O)N4)n2)cc(C(C)(C)C)c1O [Example 14]
5,6.2,Cc1c(-c2csc(Nc3ccc4c(c3)CS(=O)(=O)N4)n2)sc2ccccc12 [Example 11]
